Like-named read-outs stand apart in the source and are kept apart here.
What was measured:
[1] = not given; remark: listed apart in the source

- Mole fraction solubility (neat DES betaine-DEG 1:1, 25°C): 0.223±0.0026 mole fraction
- Mole fraction solubility (neat DES betaine-GLY 1:2, 25°C, listed as IP): 0.297 mole fraction
- Mole fraction solubility (neat DES betaine-P2D 1:1, 25°C): 0.1561±0.0027 mole fraction
- Mole fraction solubility (neat DES betaine-P2D 1:2, 25°C): 0.1919±0.0023 mole fraction
- Mole fraction solubility (neat DES betaine-P2D 1:4, 25°C): 0.2062±0.0014 mole fraction
- Mole fraction solubility (neat DES betaine-TEG 1:2, 25°C, listed as IP): 0.321 mole fraction
- Mole fraction solubility (neat DES choline chloride-B3D 1:1, 25°C): 0.1584±0.0030 mole fraction
- Mole fraction solubility (neat DES choline chloride-B3D 1:4, 25°C): 0.1899±0.0025 mole fraction
- Mole fraction solubility (neat DES choline chloride-ETG 1:1, 25°C): 0.2167±0.0034 mole fraction
- Mole fraction solubility (neat DES choline chloride-ETG 1:2, 25°C): 0.3072±0.0025 mole fraction
- Mole fraction solubility (neat DES choline chloride-ETG 1:4, 25°C): 0.2905±0.0061 mole fraction
- Mole fraction solubility (neat DES choline chloride-GLY 1:1, 25°C): 0.2793±0.0019 mole fraction
- Mole fraction solubility (neat DES choline chloride-GLY 1:2, 25°C): 0.3495±0.0031 mole fraction
- Mole fraction solubility (neat DES choline chloride-GLY 1:2, 25°C, listed as IP): 0.349 mole fraction
- Mole fraction solubility (neat DES choline chloride-GLY 1:4, 25°C): 0.3187±0.0038 mole fraction
- Mole fraction solubility (neat DES choline chloride-P2D 1:1, 25°C): 0.1611±0.0024 mole fraction
- Mole fraction solubility (neat DES choline chloride-P2D 1:2, 25°C): 0.2068±0.0046 mole fraction
- Mole fraction solubility (neat DES choline chloride-TEG 1:2, 25°C, listed as IP): 0.353 mole fraction
- Mole fraction solubility ([1]; DES betaine + TEG 1:2, x*DES 1.0, 25°C): 0.3209±0.0024 mole fraction
- Mole fraction solubility ([1]; DES betaine + TEG 1:2, x*DES 1.0, 30°C): 0.3830±0.0062 mole fraction
- Mole fraction solubility ([1]; DES betaine + TEG 1:2, x*DES 1.0, 35°C): 0.4548±0.0069 mole fraction
- Mole fraction solubility ([1]; DES betaine + TEG 1:2, x*DES 1.0, 40°C): 0.5444±0.0067 mole fraction
- Mole fraction solubility ([1]; DES choline chloride + TEG 1:2, x*DES 1.0, 25°C): 0.3528±0.0029 mole fraction
- Mole fraction solubility ([1]; DES choline chloride + TEG 1:2, x*DES 1.0, 30°C): 0.4366±0.0077 mole fraction
- Mole fraction solubility ([1]; DES choline chloride + TEG 1:2, x*DES 1.0, 35°C): 0.5483±0.0115 mole fraction
- Mole fraction solubility ([1]; DES choline chloride + TEG 1:2, x*DES 1.0, 40°C): 0.6784±0.0040 mole fraction
- Mole fraction solubility ([1]; aqueous DES betaine + TEG 1:2, x*DES 0.1, 25°C): 0.0396±0.0003 mole fraction
- Mole fraction solubility ([1]; aqueous DES betaine + TEG 1:2, x*DES 0.1, 30°C): 0.0475±0.0007 mole fraction
- Mole fraction solubility ([1]; aqueous DES betaine + TEG 1:2, x*DES 0.1, 35°C): 0.0561±0.0003 mole fraction
- Mole fraction solubility ([1]; aqueous DES betaine + TEG 1:2, x*DES 0.1, 40°C): 0.0688±0.0013 mole fraction
- Mole fraction solubility ([1]; aqueous DES betaine + TEG 1:2, x*DES 0.2, 25°C): 0.0911±0.0020 mole fraction
- Mole fraction solubility ([1]; aqueous DES betaine + TEG 1:2, x*DES 0.2, 30°C): 0.1077±0.0009 mole fraction
- Mole fraction solubility ([1]; aqueous DES betaine + TEG 1:2, x*DES 0.2, 35°C): 0.1301±0.0019 mole fraction
- Mole fraction solubility ([1]; aqueous DES betaine + TEG 1:2, x*DES 0.2, 40°C): 0.1547±0.0024 mole fraction
- Mole fraction solubility ([1]; aqueous DES betaine + TEG 1:2, x*DES 0.3, 25°C): 0.1423±0.0035 mole fraction
- Mole fraction solubility ([1]; aqueous DES betaine + TEG 1:2, x*DES 0.3, 30°C): 0.1670±0.0021 mole fraction
- Mole fraction solubility ([1]; aqueous DES betaine + TEG 1:2, x*DES 0.3, 35°C): 0.2005±0.0018 mole fraction
- Mole fraction solubility ([1]; aqueous DES betaine + TEG 1:2, x*DES 0.3, 40°C): 0.2400±0.0050 mole fraction
- Mole fraction solubility ([1]; aqueous DES betaine + TEG 1:2, x*DES 0.4, 25°C): 0.1950±0.0030 mole fraction
- Mole fraction solubility ([1]; aqueous DES betaine + TEG 1:2, x*DES 0.4, 30°C): 0.2288±0.0034 mole fraction
- Mole fraction solubility ([1]; aqueous DES betaine + TEG 1:2, x*DES 0.4, 35°C): 0.2772±0.0045 mole fraction
- Mole fraction solubility ([1]; aqueous DES betaine + TEG 1:2, x*DES 0.4, 40°C): 0.3302±0.0064 mole fraction
- Mole fraction solubility ([1]; aqueous DES betaine + TEG 1:2, x*DES 0.5, 25°C): 0.2459±0.0052 mole fraction
- Mole fraction solubility ([1]; aqueous DES betaine + TEG 1:2, x*DES 0.5, 30°C): 0.2949±0.0045 mole fraction
- Mole fraction solubility ([1]; aqueous DES betaine + TEG 1:2, x*DES 0.5, 35°C): 0.3502±0.0073 mole fraction
- Mole fraction solubility ([1]; aqueous DES betaine + TEG 1:2, x*DES 0.5, 40°C): 0.4150±0.0056 mole fraction
- Mole fraction solubility ([1]; aqueous DES betaine + TEG 1:2, x*DES 0.6, 25°C): 0.2941±0.0043 mole fraction
- Mole fraction solubility ([1]; aqueous DES betaine + TEG 1:2, x*DES 0.6, 30°C): 0.3535±0.0052 mole fraction
- Mole fraction solubility ([1]; aqueous DES betaine + TEG 1:2, x*DES 0.6, 35°C): 0.4213±0.0098 mole fraction
- Mole fraction solubility ([1]; aqueous DES betaine + TEG 1:2, x*DES 0.6, 40°C): 0.5066±0.0066 mole fraction
- Mole fraction solubility ([1]; aqueous DES betaine + TEG 1:2, x*DES 0.7, 25°C): 0.3409±0.0049 mole fraction
- Mole fraction solubility ([1]; aqueous DES betaine + TEG 1:2, x*DES 0.7, 30°C): 0.4057±0.0067 mole fraction
- Mole fraction solubility ([1]; aqueous DES betaine + TEG 1:2, x*DES 0.7, 35°C): 0.4779±0.0128 mole fraction
- Mole fraction solubility ([1]; aqueous DES betaine + TEG 1:2, x*DES 0.7, 40°C): 0.5883±0.0063 mole fraction
- Mole fraction solubility ([1]; aqueous DES betaine + TEG 1:2, x*DES 0.8, 25°C): 0.3800±0.0058 mole fraction
- Mole fraction solubility ([1]; aqueous DES betaine + TEG 1:2, x*DES 0.8, 25°C, listed as IP): 0.380 mole fraction
- Mole fraction solubility ([1]; aqueous DES betaine + TEG 1:2, x*DES 0.8, 30°C): 0.4493±0.0062 mole fraction
- Mole fraction solubility ([1]; aqueous DES betaine + TEG 1:2, x*DES 0.8, 35°C): 0.5335±0.0056 mole fraction
- Mole fraction solubility ([1]; aqueous DES betaine + TEG 1:2, x*DES 0.8, 40°C): 0.6375±0.0137 mole fraction
- Mole fraction solubility ([1]; aqueous DES betaine + TEG 1:2, x*DES 0.9, 25°C): 0.3582±0.0053 mole fraction
- Mole fraction solubility ([1]; aqueous DES betaine + TEG 1:2, x*DES 0.9, 30°C): 0.4279±0.0034 mole fraction
- Mole fraction solubility ([1]; aqueous DES betaine + TEG 1:2, x*DES 0.9, 35°C): 0.5040±0.0073 mole fraction
- Mole fraction solubility ([1]; aqueous DES betaine + TEG 1:2, x*DES 0.9, 40°C): 0.6012±0.0090 mole fraction
- Mole fraction solubility ([1]; aqueous DES choline chloride + TEG 1:2, x*DES 0.1, 25°C): 0.0211±0.0003 mole fraction
- Mole fraction solubility ([1]; aqueous DES choline chloride + TEG 1:2, x*DES 0.1, 30°C): 0.0257±0.0001 mole fraction
- Mole fraction solubility ([1]; aqueous DES choline chloride + TEG 1:2, x*DES 0.1, 35°C): 0.0318±0.0006 mole fraction
- Mole fraction solubility ([1]; aqueous DES choline chloride + TEG 1:2, x*DES 0.1, 40°C): 0.0386±0.0006 mole fraction
- Mole fraction solubility ([1]; aqueous DES choline chloride + TEG 1:2, x*DES 0.2, 25°C): 0.0641±0.0005 mole fraction
- Mole fraction solubility ([1]; aqueous DES choline chloride + TEG 1:2, x*DES 0.2, 30°C): 0.0783±0.0007 mole fraction
- Mole fraction solubility ([1]; aqueous DES choline chloride + TEG 1:2, x*DES 0.2, 35°C): 0.0973±0.0012 mole fraction
- Mole fraction solubility ([1]; aqueous DES choline chloride + TEG 1:2, x*DES 0.2, 40°C): 0.1210±0.0019 mole fraction
- Mole fraction solubility ([1]; aqueous DES choline chloride + TEG 1:2, x*DES 0.3, 25°C): 0.1227±0.0023 mole fraction
- Mole fraction solubility ([1]; aqueous DES choline chloride + TEG 1:2, x*DES 0.3, 30°C): 0.1520±0.0019 mole fraction
- Mole fraction solubility ([1]; aqueous DES choline chloride + TEG 1:2, x*DES 0.3, 35°C): 0.1876±0.0024 mole fraction
- Mole fraction solubility ([1]; aqueous DES choline chloride + TEG 1:2, x*DES 0.3, 40°C): 0.2338±0.0048 mole fraction
- Mole fraction solubility ([1]; aqueous DES choline chloride + TEG 1:2, x*DES 0.4, 25°C): 0.1961±0.0021 mole fraction
- Mole fraction solubility ([1]; aqueous DES choline chloride + TEG 1:2, x*DES 0.4, 30°C): 0.2424±0.0032 mole fraction
- Mole fraction solubility ([1]; aqueous DES choline chloride + TEG 1:2, x*DES 0.4, 35°C): 0.2953±0.0062 mole fraction
- Mole fraction solubility ([1]; aqueous DES choline chloride + TEG 1:2, x*DES 0.4, 40°C): 0.3695±0.005 mole fraction
- Mole fraction solubility ([1]; aqueous DES choline chloride + TEG 1:2, x*DES 0.5, 25°C): 0.2548±0.0063 mole fraction
- Mole fraction solubility ([1]; aqueous DES choline chloride + TEG 1:2, x*DES 0.5, 30°C): 0.3205±0.0083 mole fraction
- Mole fraction solubility ([1]; aqueous DES choline chloride + TEG 1:2, x*DES 0.5, 35°C): 0.3919±0.0029 mole fraction
- Mole fraction solubility ([1]; aqueous DES choline chloride + TEG 1:2, x*DES 0.5, 40°C): 0.4807±0.0064 mole fraction
- Mole fraction solubility ([1]; aqueous DES choline chloride + TEG 1:2, x*DES 0.6, 25°C): 0.2992±0.0052 mole fraction
- Mole fraction solubility ([1]; aqueous DES choline chloride + TEG 1:2, x*DES 0.6, 30°C): 0.3723±0.0052 mole fraction
- Mole fraction solubility ([1]; aqueous DES choline chloride + TEG 1:2, x*DES 0.6, 35°C): 0.4667±0.0108 mole fraction
- Mole fraction solubility ([1]; aqueous DES choline chloride + TEG 1:2, x*DES 0.6, 40°C): 0.5790±0.0052 mole fraction
- Mole fraction solubility ([1]; aqueous DES choline chloride + TEG 1:2, x*DES 0.7, 25°C): 0.3351±0.0045 mole fraction
- Mole fraction solubility ([1]; aqueous DES choline chloride + TEG 1:2, x*DES 0.7, 30°C): 0.4232±0.0081 mole fraction
- Mole fraction solubility ([1]; aqueous DES choline chloride + TEG 1:2, x*DES 0.7, 35°C): 0.5264±0.0138 mole fraction
- Mole fraction solubility ([1]; aqueous DES choline chloride + TEG 1:2, x*DES 0.7, 40°C): 0.6531±0.0080 mole fraction
- Mole fraction solubility ([1]; aqueous DES choline chloride + TEG 1:2, x*DES 0.8, 25°C): 0.3673±0.0062 mole fraction
- Mole fraction solubility ([1]; aqueous DES choline chloride + TEG 1:2, x*DES 0.8, 30°C): 0.4557±0.0051 mole fraction
- Mole fraction solubility ([1]; aqueous DES choline chloride + TEG 1:2, x*DES 0.8, 35°C): 0.5712±0.0136 mole fraction
- Mole fraction solubility ([1]; aqueous DES choline chloride + TEG 1:2, x*DES 0.8, 40°C): 0.7095±0.0082 mole fraction
- Mole fraction solubility ([1]; aqueous DES choline chloride + TEG 1:2, x*DES 0.9, 25°C): 0.3754±0.0036 mole fraction
- Mole fraction solubility ([1]; aqueous DES choline chloride + TEG 1:2, x*DES 0.9, 25°C, listed as IP): 0.375 mole fraction
- Mole fraction solubility ([1]; aqueous DES choline chloride + TEG 1:2, x*DES 0.9, 30°C): 0.4619±0.0105 mole fraction
- Mole fraction solubility ([1]; aqueous DES choline chloride + TEG 1:2, x*DES 0.9, 35°C): 0.5742±0.0073 mole fraction
- Mole fraction solubility ([1]; aqueous DES choline chloride + TEG 1:2, x*DES 0.9, 40°C): 0.7138±0.0065 mole fraction
Compound: CC(C)Cc1ccc(C(C)C(=O)O)cc1 (racemic) [ibuprofen, (RS)-2-(4-(2-methylpropyl)phenyl)propanoic acid]
